Experimental findings from patent publication US20240254118A1, “PRMT5 INHIBITORS AND USES THEREOF” (Gilead Sciences, Inc., priority 2022, published 2024) are described below.

The test system of assay [1] is SDMA signal (PRMT5 inhibition) in HCT116 MTAP-deleted cells. As to the kind of experiment: Symmetric di-methyl arginine image-based high content screen assay (SDMA assay), HCT116 MTAP-deleted. The note with it: SDMA assay; for EC50: Homo sapiens, HCT-116, 72 h, 3 days of treatment, cell line not given, taken as HCT116 MTAP-deleted, read-out: EC50 (SDMA assay); for EC50 selectivity (SDMA assay): taken as HCT116 WT versus MTAP-deleted. It counts as cell-based. Summed up: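 HCT116 MTAP-deleted cells treated with compound until Day 3, then formalin-fixed, permeabilized and immunostained for SDMA, with DAPI nuclear counterstain. Imaged by high-content microscopy; SDMA read-out is mean Alexa 488 intensity per DAPI-defined cell, reflecting PRMT5 inhibition.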

In assay [2] the test system is HCT116 MTAP-deleted cells. Kind of assay: Cell viability assay (CellTiter-Glo, 7 days), HCT116 MTAP-deleted. The note with it: Homo sapiens, HCT-116, 168 h. On the technique in general: Cellular ATP, detected with luciferase, serves as a proxy for viable cell number.
Experimental: Control compounds were analyzed in parallel each time for quality control.
In Brief, on Day −1, a serial dilution of stock compounds in DMSO was performed using BioMek liquid handlers and dispensed using Echo acoustic dispenser into 384 well plates. Both tool compounds and sample compounds were spotted in the same plate for a dose response of PRMT5 inhibitors. Compound plates were stored as frozen until the cells were ready for seeding.
On Day 0, 100 HCT WT or HCT116 MTAP-deleted cells were seeded in compound-containing 384 well plates (50 μl per well) in RPMI 1640 media supplemented with 10% heat inactivated fetal bovine serum, Glutamax and penicillin streptomycin using EL460 liquid dispenser 5 μl cassette (BioTek, part no. 7170011). After equilibrating the plate in room temperature, the cells were incubated for 7 days inside the sealed incubator set at 37 °C with 90% humidity and 5% CO2.
On Day 7, the viability of cells was measured using a CTG assay kit (CellTitre-Glo; Promega cat no. G7573). Shortly, 40 μl per well of luminescent cell viability assay reagent were dispensed using EL460 liquid dispenser 5 μl cassette. CTG luminescence signal was measured using an EnVision plate reader (PerkinElmer) in accordance with manufacturer's instruction. The CC50 values for each compound after 7 days of treatment were calculated using 4 parameter non-linear logistical curve fit.

For orientation: EC50 means the concentration needed to bring the measured effect to its halfway point. Usually CC50 stands for the concentration at which the toxic effect on the cells reaches its halfway point. A low value points to harm at low concentration. As to `CC(=O)N(C)N(Cc1ccc2scnc2c1)C(=O)c1ccc2nc(N)c3cnn(C)c3c2c1` [Example 327, N′-acetyl-4-amino-N-(benzo[d]thiazol-5-ylmethyl)-N′,1-dimethyl-1H-pyrazolo[4,3-c]quinoline-8-carbohydrazide], in assay [1], the EC50 fell in the range of 1 to 5 nM and the “EC50 selectivity (SDMA assay)” value is 549. The same molecule had a cytotoxic concentration (CC50) in assay [2] below 100 nM.

For `CC(=O)N(C)N(Cc1ccc2scnc2c1)C(=O)c1cc2c(cc1F)nc(N)c1cnn(C)c12` [Example 328, N′-acetyl-4-amino-N-(benzo[d]thiazol-5-ylmethyl)-7-fluoro-N′,1-dimethyl-1H-pyrazolo[4,3-c]quinoline-8-carbohydrazide], in assay [1], the EC50 fell in the range of 1 to 5 nM and the “EC50 selectivity (SDMA assay)” value turned out to be 143. The molecule further showed a CC50 in assay [2] below 100 nM.

For `CC(=O)N(C)N(Cc1ccc(Cl)cc1Cl)C(=O)c1ccc2nc(N)c3cnn(C)c3c2c1` [Example 329, N′-acetyl-4-amino-N-(2,4-dichlorobenzyl)-N′,1-dimethyl-1H-pyrazolo[4,3-c]quinoline-8-carbohydrazide], in assay [1], the EC50 was below 1 nM and the “EC50 selectivity (SDMA assay)” value came to 134. The same molecule registered a cytotoxic concentration (CC50) in assay [2] below 100 nM.

In the case of `Cn1ncc2c(N)nc3ccc(C(=O)N(Cc4ccc(C(F)(F)F)cn4)NC(=O)OC4CCC4)cc3c21` [Example 330, cyclobutyl 2-(4-amino-1-methyl-1H-pyrazolo[4,3-c]quinoline-8-carbonyl)-2-((5-(trifluoromethyl)pyridin-2-yl)methyl)hydrazine-1-carboxylate], in assay [1], the EC50 is below 1 nM and the “EC50 selectivity (SDMA assay)” value is reported as 225. Also, the CC50 in assay [2] is below 100 nM.

Regarding `Cn1ncc2c(N)nc3cc(F)c(C(=O)N(Cc4ccc(C(F)(F)F)cn4)NC(=O)OC4CCC4)cc3c21` [Example 331, cyclobutyl 2-(4-amino-7-fluoro-1-methyl-1H-pyrazolo[4,3-c]quinoline-8-carbonyl)-2-((5-(trifluoromethyl)pyridin-2-yl)methyl)hydrazine-1-carboxylate], in assay [1], the EC50 was below 1 nM and the “EC50 selectivity (SDMA assay)” value turned out to be 37. Also, in assay [2], the half-maximal cytotoxic concentration (CC50) is below 100 nM.

With `Cn1ncc2c(N)nc3ccc(C(=O)N(Cc4ccc(C(F)(F)F)cn4)NC(=O)C45CC(C4)C5)cc3c21` [Example 332, 4-amino-N′-(bicyclo[1.1.1]pentane-1-carbonyl)-1-methyl-N-((5-(trifluoromethyl)pyridin-2-yl)methyl)-1H-pyrazolo[4,3-c]quinoline-8-carbohydrazide], in assay [1], the EC50 is below 1 nM and the “EC50 selectivity (SDMA assay)” value was 308. Also, in assay [2], the CC50 was below 100 nM.

As to `Cn1ncc2c(N)nc3cc(F)c(C(=O)N(Cc4ccc(C(F)(F)F)cn4)NC(=O)C45CC(C4)C5)cc3c21` [Example 333, 4-amino-N′-(bicyclo[1.1.1]pentane-1-carbonyl)-7-fluoro-1-methyl-N-((5-(trifluoromethyl)pyridin-2-yl)methyl)-1H-pyrazolo[4,3-c]quinoline-8-carbohydrazide], in assay [1], the EC50 is below 1 nM and the “EC50 selectivity (SDMA assay)” value is 317. The molecule also had a CC50 in assay [2] below 100 nM.

`CC(=O)N(C)N(Cc1ccc2oc(C)nc2c1)C(=O)c1ccc2nc(N)c3cnn(C)c3c2c1` [Example 334, N′-acetyl-4-amino-N′,1-dimethyl-N-((2-methylbenzo[d]oxazol-5-yl)methyl)-1H-pyrazolo[4,3-c]quinoline-8-carbohydrazide]: in assay [1], the EC50 lay in the range of 1 to 5 nM and the “EC50 selectivity (SDMA assay)” value is given as 178. In assay [2], this molecule showed a CC50 of 100 to 1000 nM.

With `CC(=O)N(C)N(Cc1ccc2nc(C)oc2c1)C(=O)c1ccc2nc(N)c3cnn(C)c3c2c1` [Example 335, N′-acetyl-4-amino-N′,1-dimethyl-N-((2-methylbenzo[d]oxazol-6-yl)methyl)-1H-pyrazolo[4,3-c]quinoline-8-carbohydrazide], in assay [1], the EC50 lay within 1 to 5 nM and the “EC50 selectivity (SDMA assay)” value was 272. Also, the CC50 in assay [2] was below 100 nM.
